Test results: PubChem BioAssay (NCI)
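Step 1: Grow cells in 96-well plates. Step 2: Expose to compound for 48 hours at 5 concentrations. Step 3: Interpolate endpoints linearly; if unreached, use highest concentration. TGI marks complete inhibition of growth.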

How the values were obtained:
Assay in all cases: DTP human tumour cell line panel, 48 h
SF-295 CNS = test system: SF-295 CNS
T-47D breast = test system: T-47D breast
HT29 colon = test system: HT29 colon
CAKI-1 renal = test system: CAKI-1 renal
EKVX NSCLC = test system: EKVX NSCLC
SNB-19 CNS = test system: SNB-19 CNS
SK-MEL-5 melanoma = test system: SK-MEL-5 melanoma
BT-549 breast = test system: BT-549 breast
M14 melanoma = test system: M14 melanoma
HOP-92 NSCLC = test system: HOP-92 NSCLC
A549 NSCLC = test system: A549 NSCLC
HOP-62 NSCLC = test system: HOP-62 NSCLC
KM12 colon = test system: KM12 colon
MCF7 breast = test system: MCF7 breast
SN12C renal = test system: SN12C renal
ACHN renal = test system: ACHN renal
HL-60(TB) leukemia = test system: HL-60(TB) leukemia
TK-10 renal = test system: TK-10 renal
SK-MEL-2 melanoma = test system: SK-MEL-2 melanoma
RPMI-8226 leukemia = test system: RPMI-8226 leukemia

Row | SMILES | TGI (SF-295 CNS) | TGI (T-47D breast) | TGI (HT29 colon) | TGI (CAKI-1 renal) | TGI (EKVX NSCLC) | TGI (SNB-19 CNS) | TGI (SK-MEL-5 melanoma) | TGI (BT-549 breast) | TGI (M14 melanoma) | TGI (HOP-92 NSCLC) | TGI (A549 NSCLC) | TGI (HOP-62 NSCLC) | TGI (KM12 colon) | TGI (MCF7 breast) | TGI (SN12C renal) | TGI (ACHN renal) | TGI (HL-60(TB) leukemia) | TGI (TK-10 renal) | TGI (SK-MEL-2 melanoma) | TGI (RPMI-8226 leukemia)
1 | CC1(C)CC(=O)c2c(nc(SSc3nc4c(c(-c5ccc(Br)cc5)c3C#N)C(=O)CC(C)(C)C4)c(C#N)c2-c2ccc(Br)cc2)C1 | > 10 µM | > 10 µM | > 10 µM | > 10 µM | > 10 µM | > 10 µM | > 10 µM | > 10 µM | > 10 µM | > 10 µM | > 10 µM | > 10 µM | > 10 µM | > 10 µM | > 10 µM | > 10 µM | > 10 µM | > 10 µM | > 10 µM | > 10 µM
2 | C[N+](C)(C)CC(=O)N/N=C(/CC1OC(=O)c2ccccc21)c1ccccc1O (stereo not given) | > 100 µM | > 100 µM | > 100 µM | > 100 µM | > 100 µM | > 100 µM | > 100 µM | 95.7 µM | > 100 µM | 87.6 µM | > 100 µM | > 100 µM | > 100 µM | > 100 µM | > 100 µM | 66.4 µM | 52.3 µM | > 100 µM | > 100 µM | 22.1 µM
3 | COc1cccc(NC(=O)CC(=O)N2N=C(C)C(N=Nc3ccc(S(=O)(=O)CCOS(=O)(=O)O)cc3)C2=O)c1 (stereo not given) | 30.6 µM | 24.2 µM | 13.8 µM | 10.5 µM | 31.9 µM | 33.9 µM | 13.3 µM | 14.5 µM | 20.2 µM | 13.2 µM | 41.1 µM | 26 µM | 36 µM | 5.71 µM | 20.1 µM | 15.7 µM | 6.85 µM | 18.9 µM | 6.23 µM | 21 µM
4 | CN(C)CC1(Cc2ccccc2)CCC(Cc2ccccc2)C1=O (stereo not given) | 31.2 µM | 51.5 µM | 28.6 µM | 23.3 µM | 31.8 µM | 29.7 µM | 27.4 µM | 25.5 µM | 23.9 µM | 40 µM | 33.5 µM | 33 µM | 20.9 µM | 24.9 µM | 23.9 µM | 29.7 µM | 12.5 µM | 26.7 µM | 27.3 µM | 6.84 µM
5 | COc1ccc([C@]23CCN(S(=O)(=O)c4ccc(C)cc4)[C@H]2[C@H](CO)C2(CC3)OCC(C)(C)CO2)cc1OC | > 100 µM | > 100 µM | > 100 µM | > 100 µM | > 100 µM | > 100 µM | > 100 µM | > 100 µM | > 100 µM | > 100 µM | > 100 µM | > 100 µM | > 100 µM | > 100 µM | > 100 µM | > 100 µM | > 100 µM | > 100 µM | > 100 µM | > 100 µM
6 | COc1cc([C@@H]2c3cc4c(cc3[C@@H](c3c(O)cc(O)c5c3O[C@H](c3ccc(O)c(O)c3)[C@H](OC(=O)c3cc(O)c(O)c(O)c3)C5)[C@H]3COC(=O)[C@H]23)OCO4)cc(OC)c1OC | > 41.8 µM | > 100 µM | > 75.9 µM | > 96.6 µM | > 100 µM | > 100 µM | > 100 µM | > 100 µM | > 100 µM | > 100 µM | > 100 µM | > 100 µM | > 100 µM | > 100 µM | > 100 µM | > 50 µM | 0.729 µM | > 100 µM | > 100 µM | > 100 µM
7 | Cc1ccc(CC(Cc2ccc(C)cc2C(=O)O)C(=O)O)cc1 (stereo not given) | > 100 µM | > 100 µM | > 100 µM | > 100 µM | > 100 µM | > 100 µM | > 100 µM | > 100 µM | > 100 µM | > 100 µM | > 100 µM | > 100 µM | > 100 µM | > 100 µM | > 100 µM | > 100 µM | > 100 µM | > 100 µM | > 100 µM | > 100 µM
8 | O=c1oc2ccccc2c(O)c1C(c1ccc2c(c1)Cc1ccccc1-2)c1c(O)c2ccccc2oc1=O | 57.4 µM | > 100 µM | > 100 µM | 41.5 µM | > 100 µM | > 100 µM | 39.9 µM | 53.6 µM | 41 µM | 49.3 µM | 44.4 µM | > 100 µM | 49.1 µM | 51.1 µM | 41.2 µM | 45.6 µM | 59.8 µM | > 100 µM | 74.2 µM | > 100 µM
9 | Clc1ccc(C=NC23CC4CC(CC(C4)C2)C3)cc1Cl | > 10 µM | > 10 µM | > 10 µM | > 10 µM | > 10 µM | > 10 µM | > 10 µM | > 10 µM | > 10 µM | > 10 µM | > 10 µM | > 10 µM | > 10 µM | > 10 µM | > 10 µM | > 10 µM | > 10 µM | > 10 µM | > 10 µM | > 10 µM
10 | S=C1N=C(Cl)/C(=C\c2ccco2)N1 | > 100 µM | > 100 µM | > 100 µM | > 100 µM | > 100 µM | > 100 µM | > 100 µM | > 100 µM | > 100 µM | > 100 µM | > 100 µM | > 100 µM | > 100 µM | > 100 µM | > 100 µM | > 100 µM | > 100 µM | > 100 µM | > 100 µM | > 100 µM
11 | COc1ccc(CCNC(=O)CCc2ccccc2CO)cc1OC | > 100 µM | > 100 µM | > 100 µM | > 100 µM | > 100 µM | > 100 µM | > 100 µM | > 100 µM | > 100 µM | > 100 µM | > 100 µM | > 100 µM | > 100 µM | > 100 µM | > 100 µM | > 100 µM | > 100 µM | > 100 µM | > 100 µM | > 100 µM
12 | COc1cc2c(c(OC)c1OC)C(=O)[C@H](Br)[C@H]2NC(=O)NCCCl | > 100 µM | > 100 µM | > 100 µM | > 100 µM | > 100 µM | > 100 µM | > 100 µM | > 100 µM | > 100 µM | > 100 µM | > 100 µM | > 100 µM | > 100 µM | > 100 µM | > 100 µM | > 100 µM | > 100 µM | > 100 µM | > 100 µM | > 100 µM
13 | Cn1c2ccccc2n2c3ccccc3c(=O)c(C#N)c12 | 55.1 µM | > 95.6 µM | > 100 µM | 35.2 µM | > 100 µM | > 100 µM | 28.4 µM | > 100 µM | > 100 µM | > 76.7 µM | > 100 µM | > 100 µM | > 100 µM | > 100 µM | > 100 µM | 13.6 µM | > 100 µM | > 100 µM | > 100 µM | > 26.7 µM
14 | CCOC(=O)CCC(NC(=O)c1ccc(Nc2cnc3ccc(C(F)(F)F)cc3n2)cc1)C(=O)OCC (stereo not given) | > 100 µM | > 100 µM | > 100 µM | > 65.1 µM | > 89.6 µM | > 63.7 µM | > 100 µM | 97.1 µM | > 100 µM | > 43.1 µM | > 100 µM | > 100 µM | > 85.3 µM | > 100 µM | > 100 µM | > 81.2 µM | > 100 µM | > 40.8 µM | > 100 µM | > 100 µM
15 | CC(=O)N/N=C1/CC[C@@]2(C)C(=CC[C@H]3C4CCC(C(C)CCCC(C)C)[C@@]4(C)CCC32)C1(C)C (stereo not given in full) | > 100 µM | > 100 µM | > 100 µM | > 100 µM | > 100 µM | > 100 µM | > 100 µM | > 100 µM | > 100 µM | > 100 µM | > 100 µM | > 100 µM | > 100 µM | > 100 µM | > 100 µM | > 100 µM | > 100 µM | > 100 µM | > 100 µM | > 100 µM
16 | CCNc1nc2c(ncn2C2CC(O)C(COP(=O)(O)O)O2)c(=O)[nH]1 (stereo not given) | > 100 µM | > 100 µM | > 100 µM | > 100 µM | > 100 µM | > 100 µM | > 100 µM | > 100 µM | > 100 µM | > 100 µM | > 100 µM | > 100 µM | > 100 µM | > 100 µM | > 100 µM | > 100 µM | > 100 µM | > 100 µM | > 100 µM | > 100 µM
